We go through 11 molecules from US12029728B2, “Small molecules with anti-protozoan activity” (New Mexico Tech University Research Park Corporation, priority 2018, dated 2024).

Values after ≈ are worked out from the molar mass of the structure shown.

A word on the MIC: it is the smallest concentration in the dilution series that meets the test's criterion for growth inhibition. Higher therefore signals a less susceptible organism.

Test [1] has as its system T. cruzi epimastigotes. Description: T. cruzi epimastigote toxicity, visually assessed. As to conditions: 48 hours at 30° C.; for killing at 100 µM: Trypanosoma cruzi, epimastigotes, read-out: T. cruzi death @ 100 μM. In kind it is cell-based, Trypanosoma cruzi. The method, then:
A 1:20 working dilution of T. cruzi epimastigotes was prepared in LIT1029 medium from a saturated (˜4×10^6 cells/mL) culture. 100 μL of the 1:20 working dilution was plated, and the epimastigotes were incubated with a compound of the disclosure at varying concentrations for 48 hours at 30° C. Following T. cruzi epimastigote treatment with a compound of the disclosure, the toxicity of compounds towards T. cruzi epimastigotes was visually assessed.

For test [2], the system named is T. cruzi amastigotes and trypomastigotes. Description: Viability of tdTomato T. cruzi amastigotes and trypomastigotes, fluorescence. In kind it is cell-based, Trypanosoma cruzi. As to conditions: 25 μM, 48 hours at 37° C. Here is the method:
The viability of a mixture of T. cruzi amastigotes and trypomastigotes after exposure to 25 μM of the compounds of the disclosure was determined. 2×10^5 parasites/100 μL were plated in 96-well plates. Parasites expressing tdTomato were used to assess parasite viability using fluorescence measurements. Parasites were incubated with 25 μM of the compounds of the disclosure for 48 hours at 37° C. After the incubation period, the viability of amastigotes and trypomastigotes was assessed by measuring the fluorescence intensity at 510 nm-590 nm using a Tecan plate reader, where the presence of fluorescence indicated viable amastigotes/trypomastigotes.

Test [3] relates to T. cruzi-infected ARPE cells. The experiment in a line: Treatment of T. cruzi-infected ARPE cells, imaging. It is filed as cell-based, Trypanosoma cruzi. Here is the method:
Four confocal dishes were prepared with 10,000 ARPE cells, which were adhered overnight at 37° C. The four dishes were ARPE control cells, non-infected but 5 μM Compound 2-treated cells, non-treated but infected cells, and infected cells treated with 5 μM Compound 2. For the infected dishes, ARPE media was removed and replaced with 2 mL of infectious amastigotes and trypomastigotes from the ARPE passaged plate. The dishes were then incubated for 2 hours at 37° C. The treated dishes were incubated with 5 μM Compound 2 for 5 days at 37° C., while untreated dishes were incubated in fresh media without Compound 2 for 5 days at 37° C. After the 5-day period, cells were washed 3 times in ARPE media and fixed with 1 mL 4% paraformaldehyde. Cells were visualized using an EVOS cell imaging system. Amastigotes appeared as small, dense, and mostly birefringent in images.
The experiment above was repeated using 1 μM Compound 2.
Four confocal dishes with 10,000 ARPE cells were prepared and adhered overnight at 37° C. The four dishes were: 1) ARPE control cells; 2) non-infected cells treated with 1 μM Compound 2; 3) untreated infected cells; and 4) T. cruzi-infected cells treated with 1 μM Compound 2. For the infected dishes, ARPE media was removed and replaced with 2 mL of infectious amastigotes and trypomastigotes expressing tdTomato (from ARPE passaged plate). The dishes were then incubated overnight for 7 days at 37° C. The untreated dishes were incubated in fresh media without Compound 2 for 7 days at 37° C. After the 7-day incubation period, cells were washed 3 times in ARPE media and fixed with 1 mL 4% paraformaldehyde. tdTomato fluorescence, which is indicative of viable T. cruzi, was then observed via fluorescence microscopy.
ARPE cells were plated in confocal dishes (20,000 cells per dish) and incubated overnight at 37° C. Cells were infected with T. cruzi by incubating cells with T. cruzi amastigotes and trypomastigotes expressing tdTomato (˜2×10^5 cells in total) for 24 hours at 37° C. Uninfected cells served as controls. Following the T. cruzi incubation period, extracellular parasites were removed, and the medium was replaced with DMEM/F12 culture media with or without 1 μM Compound 2. The cells were incubated further for 24 hours at 37° C. Cells were then treated two more times with fresh DMEM/F12 culture media with or without 1 μM Compound 2 and incubated for 24 hours at 37° C. Following fixation of cells in 4% paraformaldehyde, plates were imaged for tdTomato fluorescence, which is indicative of viable T. cruzi, such that the effects of repeated Compound 2 treatment could be compared to a single treatment with Compound 2.
ARPE cells were plated in confocal dishes (20,000 cells per dish) and incubated overnight at 37° C. Cells were infected with T. cruzi by incubating cells with T. cruzi amastigotes and trypomastigotes expressing tdTomato (˜2×10^5 cells in total) for 24 hours at 37° C. before washing dishes three times with DMEM/F12 culture media. Uninfected plates served as controls. The dishes were then treated with 2 μM Compound 2 or left untreated as a control and incubated further for 5 days at 37° C. The treated dish received a single treatment of Compound 2 on day 1. Dishes were washed twice with DMEM/F12 media and fixed in 4% paraformaldehyde before being imaged using confocal microscopy. […] The other Compound 2 dishes that were not incubated with T. cruzi a second time were used as controls. Following fixation of cells in 4% paraformaldehyde, tdTomato fluorescence of the cells was assessed using confocal microscopy.
ARPE cells were plated in confocal dishes (20,000 cells per dish) and incubated overnight at 37° C. Dishes were incubated with T. cruzi amastigotes and trypomastigotes expressing tdTomato (˜2×10^5 cells) for 48 hours at 37° C. Untreated cells served as controls. Cells were then washed 3 times with cell medium, treated with 5 μM Compound 2 or left untreated as a control and incubated further for 2 days at 37° C. […]

Test [4] relates to L. major promastigotes. The experiment in a line: L. major promastigote viability, propidium iodide flow cytometry. In kind it is cell-based, Leishmania major. As to conditions: 50 μM, 48 hours at 24° C. The method, then: 5×10^5 L. major promastigotes were treated with vehicle control (DMSO), […], 5 μM Compound 5, 50 μM Compound 2, 50 μM Compound 5, or […] for 48 hours at 24° C. Promastigote viability was then assessed via a propidium iodide flow cytometry assay. Propidium iodide is only taken up by dead cells, and the presence of fluorescence in a promastigote sample reflects compound efficacy.

In test [5] the test system is T. cruzi epimastigotes. Description: ATP viability assay, reference drugs, epimastigotes. Particulars: Trypanosoma cruzi, 48 hours at 37° C. It is filed as cell-based. The method, then: (§1) T. cruzi epimastigotes, amastigotes, or trypomastigotes were plated at 2×10^5 cells per well in a 96 well plate. Plated epimastigotes were prepared in LIT1029 medium, while amastigotes and trypomastigotes were collected after being passaged in ARPE cells. T. cruzi cells were treated with 0 μM, 0.39 μM, 0.78 μM, 1.56 μM, 3.125 μM, 6.25 μM, 12.5 μM, 25 μM, 50 μM, or 100 μM of nifurtimox for 48 hours at 37° C. After treatment with nifurtimox, T. cruzi viability was assessed via an ATP assay. An increase in RLU indicated the presence of ATP and viable cells.
(§2) T. cruzi epimastigotes, amastigotes, or trypomastigotes were plated at 2×10^5 cells per well in a 96 well plate. Plated epimastigotes were prepared in LIT1029 medium, while amastigotes and trypomastigotes were collected after being passaged in ARPE cells. T. cruzi cells were treated with 0 μM, 0.39 μM, 0.78 μM, 1.56 μM, 3.125 μM, 6.25 μM, 12.5 μM, 25 μM, 50 μM, or 100 μM of benznidazole for 48 hours at 37° C. After treatment with benznidazole, T. cruzi viability was assessed via an ATP assay. An increase in RLUs indicated the presence of ATP and viable cells.

Test [6] concerns T. cruzi amastigotes. The experiment in a line: ATP viability assay, reference drugs, amastigotes. It is filed as cell-based. As to conditions: Trypanosoma cruzi, 48 hours at 37° C. The method, then: as §1, §2
In test [7] the test system is T. cruzi trypomastigotes. Description: ATP viability assay, reference drugs, trypomastigotes. It is filed as cell-based. Particulars: Trypanosoma cruzi, 48 hours at 37° C. The method, then:
as §1, §2

For the molecule `O=C(NO)C(c1ccccc1)c1c(-c2ccccc2)[nH]c2ccccc12` (stereo not drawn) [Compound 1, N-hydroxy-2-phenyl-2-(2-phenyl-1H-indol-3-yl)acetamide], in test [1], the “Concentration at which T. cruzi epimastigote death is greater than or equal to ~99%” value (shortened to “Concentration … to ~99%”) stood at 100 µM and the killing at 100 µM is 100%. The “toxicity to T. cruzi amastigotes and trypomastigotes” value in test [2] is given as “most toxic”. Besides, in test [3] (10 μM once per day for 2 days), the “number of intracellular parasites in ARPE culture” value is listed as “decreased the number of intracellular parasites”.
Regarding `Cc1[nH]c2ccccc2c1C(C(=O)NO)c1ccccc1` (stereo not drawn) [Compound 3, N-hydroxy-2-(2-methyl-1H-indol-3-yl)-2-phenylacetamide], the killing at 100 µM in test [1] was determined as 0%.
On the same count and under the same terms, then `O=C(NO)C(c1ccccc1)c1c(-c2cccc3ccccc23)[nH]c2c1ccc1ccccc12` (stereo not drawn) [Compound 4, N-hydroxy-2-(2-(naphthalen-1-yl)-1H-benzo[g]indol-3-yl)-2-phenylacetamide], with 0%.
With `CC(C)c1ccc(C(C(=O)NO)c2c(-c3ccc4ccccc4c3)[nH]c3ccccc23)cc1` (stereo not drawn) [Compound 5, N-hydroxy-2-(4-isopropylphenyl)-2-(2-(naphthalen-2-yl)-1H-indol-3-yl)acetamide], the “efficacy on L. major promastigote survival” value in test [4] is listed as “higher efficacy than MTF or the vehicle control”.
Take `COc1ccc(C(C(=O)NO)c2c(-c3ccc4ccccc4c3)[nH]c3ccccc23)cc1` (stereo not drawn) [Compound 6, N-hydroxy-2-(4-methoxyphenyl)-2-(2-(naphthalen-2-yl)-1H-indol-3-yl)acetamide]: the killing at 100 µM in test [1] is 0%.
For the molecule `NC(=O)C(c1ccccc1)c1c(-c2ccc3ccccc3c2)[nH]c2ccccc12` (stereo not drawn) [Compound 8, 2-(2-(naphthalen-2-yl)-1H-indol-3-yl)-2-phenylacetamide], in test [1], the “Concentration … to ~99%” value amounted to 50 µM and the killing at 100 µM was determined as 100%.
The matching figures for `N#CC(c1ccccc1)c1c(-c2ccc3ccccc3c2)[nH]c2ccccc12` (stereo not drawn) [Compound 9, 2-(2-(naphthalen-2-yl)-1H-indol-3-yl)-2-phenylacetonitrile]: at least 100 µM and 100%.
`CCCCn1c(-c2ccc3ccccc3c2)c(C(C(=O)NO)c2ccccc2)c2ccccc21` (stereo not drawn) [Compound 10, 2-(1-butyl-2-(naphthalen-2-yl)-1H-indol-3-yl)-N-hydroxy-2-phenylacetamide]: in test [1], the “Concentration … to ~99%” value is 25 µM and the killing at 100 µM is over 50%. Moreover, in test [2], the “toxicity to T. cruzi amastigotes and trypomastigotes” value is listed as “most toxic”.
`CN(C)c1ccc(C(C(=O)NO)c2c(-c3ccc4ccccc4c3)[nH]c3ccccc23)cc1` (stereo not drawn) [Compound 11, 2-(4-(dimethylamino)phenyl)-N-hydroxy-2-(2-(naphthalen-2-yl)-1H-indol-3-yl)acetamide]: in test [1], the “Concentration … to ~99%” value was found to be 100 µM and the killing at 100 µM is 100%.
With `O=C(Cn1ccnc1[N+](=O)[O-])NCc1ccccc1` [benznidazole], in test [3] (2 μM, 2 days), the “clearance of T. cruzi infection in ARPE cells” value is on record as “not cleared from T. cruzi infection”. The figures for the MIC in test [5], in test [6] and in test [7] were over 100 µM, 100 µM (≈ 26 µg/mL) and over 100 µM, respectively.
As to `CC1CS(=O)(=O)CCN1/N=C/c1ccc([N+](=O)[O-])o1` (stereo not drawn) [nifurtimox], the results for the MIC in test [5], in test [6] and in test [7] were 25 µM (≈ 7.18 µg/mL), 3.12 µM (≈ 0.896 µg/mL) and 6.25 µM (≈ 1.8 µg/mL), respectively.
